{"source": "patent US12064405B2", "about": "“Immunosuppressant comprising TSAHC or a pharmaceutically acceptable salts thereof as an active ingredient” (Seoul National University R&DB Foundation, priority 2020, dated 2024)", "key": {"[1]": {"system": "mouse model in which liver fibrosis is induced by the treatment of CCl4", "assay": "CCl4-induced liver damage, inflammation and fibrosis mouse model with TSAHC treatment", "format": "in vivo", "details": "CCl4-treated mice, 4 weeks", "method": "In a mouse animal model that can be accompanied by cell damage and inflammation when liver fibrosis is induced by the treatment of CCl4, the animal groups periodically treated (+) or not treated (−) with TSAHC during the CCl4 treatment were obtained. The body weight during 4 weeks of the treatment and the liver tissue weight after 4 weeks were calculated as a ratio (liver/body weight), or the ALT liver levels were measured from blood samples. The liver tissue was obtained and Tm4sf5 mRNA was measured by qRT-PCR.\nIn an animal model treated with CCl4 to induce liver fibrosis, the animal groups periodically treated (+) or not treated (−) with TSAHC during the CCl4 treatment were obtained. After 4 weeks of the treatment, the liver tissue was obtained and H&E and Masson's trichrome staining was performed.\nIn an animal model treated with CCl4 to induce liver fibrosis, the animal groups periodically treated (+) or not treated (−) with TSAHC during the CCl4 treatment were obtained. After 4 weeks of the treatment, the liver tissue was obtained and immunostaining was performed for Ccl20 and Cxcl10.\n(§1) In a mouse model that can be accompanied by cell damage and inflammation when liver fibrosis is induced by CCl4 treatment, the animal groups periodically treated (+) or not treated (−) with TSAHC during the CCl4 treatment were obtained. After 4 weeks of the treatment, the liver tissue was obtained and immunostaining was performed for F4/80, a macrophage marker.\nas §1, with “α-SMA indicating the activation of hepatic stellate cells.” for “F4/80, a macrophage marker.”"}, "[2]": {"system": "SNU449-TM4SF5-HA cell line", "assay": "RNA-Seq / mRNA-Seq of inflammatory cytokine and chemokine expression in TM4SF5-expressing hepatic epithelial cells", "format": "cell-based, human", "details": "10 μM TSAHC for 24 hours", "method": "To confirm whether the TSAHC treatment affects the expression and secretion of inflammatory cytokines and chemokines in TM4SF5 expression-dependent hepatic epithelial cells, RNA-Seq analysis and mRNA-Seq analysis comparing the mRNA expression were performed in SNU449-HA cell line in which the control vector was safely injected into SNU449, SNU449-TM4SF5-HA cell line injected with TM4SF5 expression vector, and SNU449-TM4SF5-HA cell line treated with 10 μM of TSAHC for 24 hours using the liver tissue of Tg^TM4SF5 overexpressing TM4SF5 or Tm4sf5^−/− KO C57BL/6 mice in Macrogen, Inc. (Seoul, Korea).\nThe experimental procedure for mRNA-Seq analysis included the followings. […] RNA library was constructed through qPCR using an agilent technologies 2100 bioanalyzer according to qPCR quantification protocol guide. Quality control analysis of the raw reads obtained through sequencing was performed. […] Aligned reads were generated after mapping the pre-treated reads to reference genome using HISAT2 program considering splice. Transcript assembly was performed through the String Tie program using paired information of the aligned reads based on the reference. The expression level obtained through the transcript quantification of each sample was calculated as a normalization value considering the transcript length and depth of coverage. […]"}, "[3]": {"system": "Hep3B cell line expressing TM4SF5", "assay": "qRT-PCR of CCL20 and CXCL10 mRNA in IL-6-treated Hep3B cell line", "format": "cell-based, human", "details": "IL-6 100 ng/ml, TSAHC 0.1 or 0.5 μM for 24 hours", "method": "Hep3B cell line expressing TM4SF5 that was not treated with IL-6 or treated at a concentration of 100 ng/ml was treated with or without TSAHC at a concentration of 0.1 or 0.5 μM for 24 hours. Then, qRT-PCR was performed using the cells.\nSpecifically, to perform qRT-PCR, the cells or tissues were disrupted using Qiazol (Qiagen, USA), to which chloroform was added, and the upper […] layer was separated by centrifugation at 4° C., 12,000×g for 15 minutes. RNA was precipitated by adding isopropanol to the separated […] layer, followed by washing with 70% ethanol. RNA pellet was isolated by centrifugation at 7,500×g for 5 minutes, ethanol was evaporated for 10 minutes, and dissolved in 30 μl of DEPC-water. After removing gDNA from the dissolved RNA, it was reverse transcribed using a reverse transcription kit (Toyobo, Japan) to obtain cDNA. The expression was measured by real-time PCR (Biorad, USA) with the obtained cDNA using 2×Eva green master mix (Labopass, Korea) and 0.4 μM forward/reverse primers. The expression amount was calculated using the modified delta-delta Ct method of Pfaffl."}, "TM4SF5 and IL6-Rα": {"target": "T1, TM4SF5 and IL6-Rα (Homo sapiens, UniProt O14894)", "T1 construct": "expressed in transfected cells", "T1 sequence (O14894 1-197)": "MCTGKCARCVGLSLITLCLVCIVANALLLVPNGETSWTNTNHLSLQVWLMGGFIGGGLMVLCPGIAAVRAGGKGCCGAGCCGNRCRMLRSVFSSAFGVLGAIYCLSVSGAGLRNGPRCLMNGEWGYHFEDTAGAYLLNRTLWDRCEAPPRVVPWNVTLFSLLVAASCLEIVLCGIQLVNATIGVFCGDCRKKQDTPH", "assay": "Binding of TM4SF5 and IL6-Rα (streptavidin-agarose precipitation, Western blotting)", "format": "cell-based", "details": "hepatic epithelial cells expressing TM4SF5-Strep; FIG. 10", "method": "Hepatic epithelial cells were infected with an empty vector (EV) or lentivirus expressing TM4SF5, and TSAHC was not treated (−) or treated (+) thereto. A cell extract was obtained, and TM4SF5-Strep was precipitated using strepavidin-agarose beads, and then Western blotting was performed with the IL-6 receptor, IL-6Rα antibody."}, "[4]": {"system": "cell lines expressing TM4SF5", "assay": "qRT-PCR of M1-type macrophage chemokines/cytokines CCL2, TNF-α, IL-6, IL-1β", "format": "cell-based", "details": "cell line expressing TM4SF5, LPS and IFN-γ", "method": "Cell lines not expressing TM4SF5 (EV) or cell lines expressing thereof (TM4SF5) were treated (+) or not treated with LPS and IFN-γ, treated (+) or not treated with 2-DG (2-Deoxy-D-glucose) as a drug for inhibiting glycolysis at a given concentration, and additionally treated (+) or not treated with TSAHC (−). Then, the mRNA expression levels of CCL2, TNF-α, IL-6, and IL-1β, the chemokines/cytokines indicating the activation of M1-type macrophages, were confirmed by qRT-PCR."}, "cells expressing TM4SF5": {"system": "cells expressing TM4SF5", "assay": "Activation of glycolytic function (acidification of extracellular solution, Seahorse)", "format": "cell-based", "method": "The cells expressing TM4SF5 were treated with vehicle, a negative control compound (4′-methoxy-4-dihydroxychalcone) or TSAHC. Then, the degree of activation of glycolytic function was measured by measuring the acidification of the extracellular solution due to glycolysis while additionally adding glucose at various concentrations using Seahorse equipment."}}, "data": [{"compound": "Cc1ccc(S(=O)(=O)Nc2ccc(C(=O)/C=C/c3ccc(O)cc3)cc2)cc1", "note": "[TSAHC, 4′-(p-toluenesulfonylamido)-4-hydroxychalcone]", "values": [{"measurement": "Tm4sf5 mRNA expression level in liver tissue", "setting": "[1]; FIG. 19A", "result": "decreased"}, {"measurement": "liver tissue weight and body weight (ratio liver/body weight)", "setting": "[1]; FIG. 19C", "result": "decreased"}, {"measurement": "collagen accumulation (Masson's trichrome staining)", "setting": "[1]; FIG. 20", "result": "decreased"}, {"measurement": "degree of liver tissue damage / irregular cell composition (H&E staining)", "setting": "[1]; FIG. 20", "result": "decreased"}, {"measurement": "Ccl20 mRNA expression level in liver tissue", "setting": "[1]; FIG. 21", "result": "decreased"}, {"measurement": "Cxcl10 mRNA expression level in liver tissue", "setting": "[1]; FIG. 21", "result": "decreased"}, {"measurement": "F4/80 mRNA expression in liver tissue", "setting": "[1]; FIG. 22B", "result": "decreased"}, {"measurement": "α-SMA mRNA expression in liver tissue", "setting": "[1]; FIG. 23B", "result": "decreased"}, {"measurement": "ALT level", "setting": "[1]; blood samples, FIG. 19B", "result": "decreased"}, {"measurement": "expression and secretion of cytokines/chemokines (IL6, IL1β, TNFα, CXCL1, CXCL2, CXCL3, CXCL6, CXCL8, CCL2, CCL5, CCL20, CXCL10, CCR10) according to TM4SF5 expression", "setting": "[2]", "result": "suppressed"}, {"measurement": "CCL20 mRNA expression level increased by IL-6", "setting": "[3]; FIG. 4A", "result": "reduced"}, {"measurement": "CXCL10 mRNA expression level increased by IL-6", "setting": "[3]; FIG. 4B", "result": "reduced"}, {"measurement": "binding of TM4SF5 and IL6-Rα", "setting": "TM4SF5 and IL6-Rα", "result": "inhibited"}, {"measurement": "CCL2 mRNA expression level", "setting": "[4]; FIG. 11A", "result": "decreased"}, {"measurement": "TNF-α mRNA expression level", "setting": "[4]; FIG. 11B", "result": "decreased"}, {"measurement": "IL-6 mRNA expression level", "setting": "[4]; FIG. 11C", "result": "decreased"}, {"measurement": "IL-1β mRNA expression level", "setting": "[4]; FIG. 11D", "result": "decreased"}, {"measurement": "glycolysis of the cells not expressing TM4SF5 (EV)", "setting": "cells expressing TM4SF5; EV cell line, FIG. 8B", "result": "not changed"}, {"measurement": "glycolytic function of cells expressing TM4SF5", "setting": "cells expressing TM4SF5; various concentrations of glucose added, FIG. 8C", "result": "decreased"}]}]}
